In EPA's ToxValDB 9.5:
Blank lines part the entries; values can stand above or below the molecule they belong to.

Key:
Tagia sp. = conditions: for NOEC: chronic/long-term, duration: 56 days
Colinus virginianus = conditions: acute; oral; mortality
Canidae = conditions: subchronic
Aphidius rhopalosiphi = conditions: not reported; mortality
Typhlodromus pyri [1] = conditions: not reported; mortality
Oncorhynchus mykiss = conditions: acute; duration: 96 hours; mortality
Typhlodromus pyri [2] = assay: LR50; higher = less toxic; conditions: not reported; mortality
Anas platyrhynchos = conditions: subchronic; mortality
Chalcophaps sp. = conditions: subchronic; oral; feed; clinical chemistry
Triticum sp. = conditions: not reported; no effects
Daphnia magna = conditions: chronic/long-term; duration: 21 days; no effects
Equus caballus = conditions: short-term; duration: 14 days; oral; feed; M/F; no effects
Pleurozium sp. = conditions: acute; duration: 72 hours; growth
Sinapis alba = conditions: not reported; no effects
[3] = test system: Vigna radiata var. radiata; conditions: not reported; no effects
Bibionidae = conditions: chronic/long-term; duration: 28 days; other
Sus scrofa = conditions: short-term; duration: 10 days; Not specified; no effects
Perdix sp. = conditions: not reported; mortality
Anser anser = conditions: not reported; oral; feed; mortality
Coturnix coturnix = conditions: repeat dose other; food consumption
Meleagris sp. = conditions: chronic/long-term; duration: 20 weeks; oral; feed; body weight

SMILES: CC1=CC1 [1-Methylcyclopropene]
LD50 (Tagia sp.; acute, mortality): > 4.41 ppm | LD50 (Colinus virginianus): > 81 mg/kg-day | NOAEL (Canidae; duration: 90 days, oral, Dog Other, hematological): 22.4 mg/kg-day | LEL (Aphidius rhopalosiphi): 10 mg/kg | LC50 (Rattus norvegicus; acute, inhalation, mortality): > 2.5 µg/mL | LD50 (Rattus norvegicus; acute, oral, mortality): > 235 mg/kg-day | NOAEL (Rattus norvegicus; reproduction developmental): 543 mg/kg-day | NOAEL (Rattus norvegicus; reproduction developmental, inhalation): 6.5 mg/kg-day | NOAEL (Rattus norvegicus; reproduction developmental, oral, diet, body weight): 3.8 mg/kg-day | NOAEL (Rattus norvegicus; short-term, duration: 3 weeks, inhalation, M): 68 mg/kg-day | NOAEL (Rattus norvegicus; subchronic, duration: 90 days, inhalation, M, hematological): 9 mg/kg-day | LEL (Typhlodromus pyri [1]): 10 mg/kg | LC50 (Oncorhynchus mykiss): > 0.966 µg/mL | NOAEL (reproduction developmental): 22.4 mg/kg-day | LR50 (Typhlodromus pyri [2]): > 10 ppm

SMILES: Clc1ccc(C(c2ccc(Cl)cc2)C(Cl)(Cl)Cl)cc1 [DDT]
NOAEL (Anas platyrhynchos): 0.6 mg/kg-day | LEL (Chalcophaps sp.): 0.6 mg/kg-day

LEL (Gallus gallus; short-term, duration: 21 days, no effects): ≤ 150 mg/L | LEL (Gallus gallus; subchronic, duration: 35 days, oral, diet, Chicken, no effects): 400 mg/kg-day | LEL (Gallus gallus; subchronic, duration: 42 days, oral, diet, no effects): 400 mg/kg-day | LEL (Equus caballus): 6.25 mg/kg-day | LEL (Sus scrofa): 80 mg/kg-day
SMILES: CCCCCCCCCCOc1cc2c(=O)c(C(=O)OCC)c[nH]c2cc1OCC [Decoquinate]
NOEC (Triticum sp.): ≤ 100 mg/kg | NOEC (Tagia sp.; no effects): > 1000 mg/kg | NOEC (Tagia sp.; reproduction): 1000 mg/kg | NOEC (Daphnia magna): 35.2 µg/L | NOEC (Pleurozium sp.): 73 µg/L | NOEC (Sinapis alba): ≤ 100 mg/kg | NOEC [3]: ≤ 100 mg/kg | NOEC (Bibionidae): 16.3 mg/kg | NOEL (Canidae; duration: 12 weeks, Beagle, behavior): 15 mg/kg-day | NOEL (Rattus norvegicus; developmental, duration: 11 days, oral, gavage, F, Sprague-Dawley, development): 100 mg/kg-day | NOEL (Oryctolagus sp.; developmental, duration: 11 days, oral, capsule, F, New Zealand, development): 60 mg/kg-day | NOAEL (Oryctolagus sp.; reproduction developmental, F, mortality): 60 mg/kg-day | NOEC (subchronic, duration: 56 days, other): ≥ 9.2 mg/kg-day

SMILES: Br.O=C(C[C@H]1NCCC[C@@H]1O)Cn1cnc2cc(Br)c(Cl)cc2c1=O [Halofuginone hydrobromide]
LEL (Gallus gallus; subchronic, duration: 8 weeks, oral, diet, hematological): 6 mg/kg-day | LEL (Perdix sp.): 3 mg/kg | LEL (Anser anser): 3 mg/kg | LEL (Coturnix coturnix): 3 mg/kg-day | LEL (Oryctolagus sp.; repeat dose other, food consumption): 3 mg/kg-day | NOEL (Oryctolagus sp.; reproduction developmental, body weight): 0.03 mg/kg-day | LEL (Meleagris sp.): 9 mg/kg
